Experimental data from US20100034832A1, “METHODS FOR MANIPULATING STEM CELLS” (THE GENERAL HOSPITAL CORPORATION, priority 2006, published 2010).
Like-named read-outs stand apart in the source and are kept apart here.

How the values were obtained:
[1] = system: immature HSC fraction of the BM; settings: 200 mg/kg CTX intraperitoneally, day 4
Procedure: In the CIX injury model, either sterile PBS or CTX at final concentration of 200 mg/kg mouse weight was injected intraperitoneally. At day 4 after injection, mice were euthanized and BM was obtained from femurs and tibiae of each mouse (n=5 per group).
Apoptosis was measured by AnnexinV and 7AAD staining as previously described Cheng, T. et al. Nat. Med. 6, 1235-1240 (2000).

PB leucocyte count = assay: 5-fluorouracil (5FU) BM injury model, PB counts; type: in vivo, mouse; settings: single 150 mg/kg 5FU intraperitoneally
Procedure: Similar results were obtained when mice were subjected to BM injury using 5-fluorouracil (5FU) (data not shown). In the 5FU injury model, 150 mg/kg mouse weight 5FU was injected intraperitoneally at day 0 PB was obtained through tail vein bleeding for analysis weekly starting day 0 (n=10 per group).
Next, we examined the role of P2Y14 in long-term hematopoietic recovery from BM injury. The mice were subjected to a single injection of 5FU and followed the peripheral blood (PB) leucocyte counts as well as PB granulocyte, B cell and T cell content by flow cytometry.
Med. 6, 1235-1240 (2000).

Structure (SMILES) | immature HSC fraction of the BM (% LKS+, % CD34lo/-LKS+) ([1]; P2Y14-/- mice) | apoptosis in the immature HSC fraction ([1]; P2Y14-/- mice, AnnexinV and 7AAD) | immature HSC fraction of the BM (% LKS+, % CD34lo/-LKS+) ([1]; wildtype mice) | persistence of greater than normal granulocyte (Gr-1+) count rebound (PB leucocyte count; P2Y14-/- mice) | nadir of total PB leucocyte count (PB leucocyte count; both -/- and +/+ mice) [days] | peak of rebound leucocytosis (PB leucocyte count; both -/- and +/+ mice) [days] | return to baseline leucocyte count (PB leucocyte count; both -/- and +/+ mice)
O=P1(N(CCCl)CCCl)NCCCO1 (stereo not shown) [CTX, cyclophosphamide] | loss of enrichment for immature HSC fraction | increased apoptosis | enrichment of immature HSC fraction | – | – | – | –
O=c1[nH]cc(F)c(=O)[nH]1 [5FU, 5-fluorouracil] | – | – | – | up to 9 weeks | 7 | 14 | 3-4 weeks post-injection
